In ChEMBL document CHEMBL2417430, “A synthetic approach to novel carvotacetone and antheminone analogues with anti-tumour activity” (Bioorg Med Chem Lett, 2013) one finds IC50 data, which are given here for 6 molecules.

The subject of one experiment is A549. Kind of experiment: Cytotoxicity against human A549 cells after 4 days by MTT assay. The format is functional, cell-based. The conditions noted are these: A549, 96 h. For orientation: Tetrazolium assays rely on reduction of a dye to a coloured formazan, in cell work by metabolically active cells.
The subject of another experiment is MCF-10A. The experiment is described as follows: Cytotoxicity against human MCF10A cells after 4 days by MTT assay. In kind it is cell-based. The conditions noted are these: 96 h.

The IC50 is the midpoint of a concentration-inhibition curve. Lower therefore signals higher potency. For the molecule `CC(C)[C@H]1CC(=O)C(CO)=C[C@@H]1O`, in the experiment with A549, the midpoint of inhibition, the IC50, lay at 159 µM.

On to `C/C=C/C(=O)OCC1=C[C@H](O)[C@@H](C(C)C)CC1=O`, for which, in the experiment with A549, the IC50 was 14 µM. This IC50 lies about 11-fold lower than the previous one.

In the experiment with A549, `C/C=C/C(=O)OCC1=C[C@H](O)[C@H](c2ccccc2)CC1=O` displayed an IC50 of 8 µM.

Consider `C/C=C/C(=O)OCC1=C[C@H](O)[C@@H](c2ccccc2)CC1=O`, for which the IC50 amounted to 1.8 µM with MCF-10A and 1.3 µM in the experiment on A549.

`C/C=C/C(=O)OCC1=C[C@@H](O)CCC1=O` came in with an IC50 with A549 of 16.7 µM.

With `C/C=C/C(=O)OCC1=C[C@H](O)[C@@H]2C[C@@H]2C1=O`, 18.1 µM corresponded to half-maximal inhibition in the experiment with A549 (IC50).
